Calls of active or inactive are those of the source. The rule behind the calls is not given here.

This note sets out measurements from ChEMBL document CHEMBL1124625, “Flavones. 2. Synthesis and structure-activity relationship of flavodilol and its analogues, a novel class of antihypertensive agents with catecholamine depleting properties” (J Med Chem, 1989).

The subject of assay [1] is Rattus norvegicus. The assay is described as follows: Systolic blood pressure (SBP) in anesthetized spontaneously hypertensive rats (SHR) before administration of 75 mg/kg dose perorally. The format is functional. Details: unit: mmHg. Particulars: route oral.
The target in assay [2] is Adrenergic receptor beta (Rattus norvegicus, UniProt P18090+P10608+P26255).
Description: Inhibition constant from beta adrenergic receptor binding assay
Assay [3] concerns Rattus norvegicus. As to the kind of experiment: Systolic blood pressure (SBP) in anesthetized spontaneously hypertensive rats(SHR) at 7.5 hours after administration of 75 mg/kg dose perorally. Particulars: route oral. The format is functional.
In assay [4] the test system is Rattus norvegicus. As to the kind of experiment: Systolic blood pressure (SBP) in anesthetized spontaneously hypertensive rats(SHR) at 7.5 hours after administration of 75 mg/kg dose perorally; NS is not statistically significant.
Assay [5] relates to Rattus norvegicus. The assay is described as follows: Systolic blood pressure (SBP) in anesthetized spontaneously hypertensive rats(SHR) at 7.5 hours after administration of 35 mg/kg dose perorally. It is filed as functional. Particulars: route oral.
Assay [6] has as its system Rattus norvegicus. The assay is described as follows: Systolic blood pressure (SBP) in anesthetized spontaneously hypertensive rats(SHR) before administration of 35 mg/kg dose perorally. The format is functional. Details: unit not given here. Particulars: route oral.
Assay [7] is filed under the species Cavia porcellus. As to the kind of experiment: Inhibition of the isoproterenol response at a dose of 1 x 10e -4M in guinea pig; slight inhibition was found. It is filed as functional, organism-based.
Assay [8] relates to Rattus norvegicus. As to the kind of experiment: Systolic blood pressure (SBP) in anesthetized spontaneously hypertensive rats(SHR) before administration of 150 mg/kg dose perorally. The format is functional. Particulars: route oral.
Assay [9] deals with Rattus norvegicus. As to the kind of experiment: Systolic blood pressure (SBP) in anesthetized spontaneously hypertensive rats(SHR) at 7.5 hours after administration of 75 mg/kg dose perorally; NS is not statistically significant.
For assay [10], the system named is Rattus norvegicus. As to the kind of experiment: Systolic blood pressure (SBP) in anesthetized spontaneously hypertensive rats(SHR) at 7.5 hours after administration of 35 mg/kg dose perorally; NS is not statistically significant.
Assay [11] concerns Rattus norvegicus. As to the kind of experiment: Systolic blood pressure (SBP) in anesthetized spontaneously hypertensive rats(SHR) at 7.5 hours after administration of 17 mg/kg dose perorally. The format is functional. Particulars: route oral.
The subject of assay [12] is Rattus norvegicus. As to the kind of experiment: Systolic blood pressure (SBP) in anesthetized spontaneously hypertensive rats(SHR) before administration of 17 mg/kg dose perorally. The format is functional. Particulars: route oral.
For assay [13], the species on record is Cavia porcellus. As to the kind of experiment: Inhibition of the isoproterenol response at a dose of 1 x 10e -4M in guinea pig; slight inhibition was found. It is filed as functional, organism-based.
The test system of assay [14] is Rattus norvegicus. The assay is described as follows: Systolic blood pressure (SBP) in anesthetized spontaneously hypertensive rats(SHR) at 7.5 hours after administration of 30 mg/kg dose intravenously; NS is not statistically significant. It is filed as functional, organism-based. Also on record: dose 30 mg/kg.
Assay [15] has as its system Rattus norvegicus. The assay is described as follows: Systolic blood pressure (SBP) in anesthetized spontaneously hypertensive rats(SHR) before administration of 30 mg/kg dose intravenously. It is filed as functional. Particulars: route intravenous.
The subject of assay [16] is Rattus norvegicus. The assay is described as follows: Systolic blood pressure (SBP) in anesthetized spontaneously hypertensive rats(SHR) at 7.5 hours after administration of 75 mg/kg dose perorally; value not statistically significant. Particulars: route oral. It is filed as functional.
Assay [17] has as its system Rattus norvegicus. The assay is described as follows: Compound was evaluated for % decrease in hypothalamus norepinephrine in anesthetized spontaneously hypertensive rats(SHR) at 24 hours after administration of 35 mg/kg dose perorally. The format is functional. Particulars: route oral.
Assay [18] has as its system Rattus norvegicus. The assay is described as follows: Compound was evaluated for % decrease in heart norepinephrine in anesthetized spontaneously hypertensive rats(SHR) at 24 hours after administration of 35 mg/kg dose perorally. It is filed as functional. Particulars: route oral.
In assay [19] the test system is Rattus norvegicus. As to the kind of experiment: Compound was evaluated for % decrease in adrenal epinephrine in anesthetized spontaneously hypertensive rats(SHR) at 24 hours after administration of 35 mg/kg dose perorally. The format is functional. Particulars: route oral.

For `CC(C)NCC(O)COc1cccc2c(=O)cc(-c3ccccc3)oc12` (configuration not stated), the Systolic blood pressure in [1] worked out at 209. In addition, the affinity in assay [2] corresponds to a Ki of 7.5 nM.
Turning to `CCCNCC(O)COc1ccc2c(=O)c(Cc3ccccc3)c(-c3ccccc3)oc2c1` (configuration not stated), in assay [3], the “Decrease in Systolic blood pressure” value was found to be 14%. For the same molecule, the Systolic blood pressure in assay [1] amounted to 198.
Turning to `CC(C)[N+](C)(C)CC(O)COc1ccc2c(=O)cc(-c3ccccc3)oc2c1.[I-]` (configuration not stated), in [1], the Systolic blood pressure came out at 200. For the same molecule, in [4], the “Decrease in Systolic blood pressure” value is “Not significant”.
The like results for `CC(C)NCC(O)COc1ccc2c(c1)OC(c1ccccc1)CC2=O` (configuration not stated) were, in that order, 198 and “Not significant”.
In the case of `CC(C)NCC(O)COc1cccc2ccccc12` (configuration not stated) [PROPRANOLOL], the Systolic blood pressure in assay [1] turned out to be 212. For the same molecule, the “Decrease in Systolic blood pressure” value in assay [4] is “inactive”.
Consider `CC(C)NCC(O)COc1ccc2c(=O)cc(-c3ccc(Cl)cc3)oc2c1` (configuration not stated), for which, in [5], the “Decrease in Systolic blood pressure” value was determined as 19%. Moreover, in assay [6], the Systolic blood pressure is given as 192.
`O=c1cc(-c2ccccc2)oc2cc(OCC(O)CNC3CCS(=O)(=O)C3)ccc12` (configuration not stated): the Systolic blood pressure in assay [1] came to 196. In [4], the “Decrease in Systolic blood pressure” value is “Not significant”.
In turn, `CC(C)NCC(O)COc1ccc2c(=O)c(Cc3ccccc3)c(-c3ccccc3)oc2c1` (configuration not stated) registered a Systolic blood pressure in [1] of 200. In addition, the “Decrease in Systolic blood pressure” value in assay [4] was “Not significant”.
In the case of `Cc1c(-c2ccccc2)oc2cc(OCC(O)CNC(C)C)ccc2c1=O` (configuration not stated), in assay [7], the Activity result was “slight inhibition was found”. Besides, the “Decrease in Systolic blood pressure” value in assay [5] stood at 10%; in assay [3] it was 27%. For the same molecule, the Systolic blood pressure was 206 in assay [6] and 208 in assay [1].
`CC(C)(C)NCC(O)COc1ccc2c(=O)cc(-c3ccccc3)oc2c1` (configuration not stated): the Systolic blood pressure in [8] is on record as 201. The Ki (as a rule, the equilibrium dissociation constant of an inhibitor or competing ligand from its target) in assay [2] worked out at 18000 nM.
In assay [1], `O=c1cc(-c2ccccc2)oc2cc(OCC(O)CNCC(O)COc3ccccc3)ccc12` (configuration not stated) showed a Systolic blood pressure of 198. The “Decrease in Systolic blood pressure” value in assay [4] is “Not significant”.
`CC(C)N(Cc1ccccc1)CC(O)COc1ccc2c(=O)cc(-c3ccccc3)oc2c1` (configuration not stated): in assay [1], the Systolic blood pressure is 200. Further, in [9], the “Decrease in Systolic blood pressure” value is “Not significant”.
`Cc1ccc(-c2cc(=O)c3ccc(OCC(O)CNC(C)C)cc3o2)cc1` (configuration not stated): in [1], the Systolic blood pressure worked out at 196. Moreover, the “Decrease in Systolic blood pressure” value in assay [9] is “Not significant”.
The molecule `O=c1cc(-c2ccccc2)oc2cc(OCC3CO3)ccc12` (configuration not stated) registered a Systolic blood pressure in [1] of 120.
Still for that read-out and setting: the same measure for `O=c1cc(-c2ccccc2)oc2cc(O)ccc12` [7-HYDROXYFLAVONE]: 217.
`CC(C)NCC(O)COc1ccc2c(=O)cc(-c3ccc([N+](=O)[O-])cc3)oc2c1` (configuration not stated) registered a Systolic blood pressure in assay [1] of 202. For the same molecule, in [9], the “Decrease in Systolic blood pressure” value is “Not significant”.
For `CCNCC(O)COc1ccc2c(=O)cc(-c3ccccc3)oc2c1` (configuration not stated), the “Decrease in Systolic blood pressure” value in assay [5] is 16%. In [6], this molecule returned a Systolic blood pressure of 186. Moreover, the inhibition constant (Ki) in assay [2] stood at 7500 nM.
`Cc1cc(=O)c2ccc(OCC(O)CNC(C)C)cc2o1` (configuration not stated): the Systolic blood pressure in assay [1] is recorded as 196. In [2], this molecule gave a Ki of 23000 nM. Moreover, in assay [9], the “Decrease in Systolic blood pressure” value is “inactive”.
Turning to `COc1ccc(CCNCC(O)COc2ccc3c(=O)cc(-c4ccccc4)oc3c2)cc1OC` (configuration not stated), in assay [1], the Systolic blood pressure was determined as 204. For the same molecule, the “Decrease in Systolic blood pressure” value in [9] is “Not significant”.
`CNCC(O)COc1ccc2c(=O)cc(-c3ccccc3)oc2c1` (configuration not stated) returned a Systolic blood pressure in assay [6] of 190. In assay [10], the “Decrease in Systolic blood pressure” value was “Not significant”.
Regarding `CC(C)NCC(O)COc1cc(O)c2c(=O)cc(-c3ccccc3)oc2c1` (configuration not stated), the “Decrease in Systolic blood pressure” value in assay [3] turned out to be 15%. Also, in assay [1], the Systolic blood pressure is on record as 195.
Take `CC(C)NCCCOc1ccc2c(=O)cc(-c3ccccc3)oc2c1`: the Systolic blood pressure in assay [1] is listed as 204. In [4], the “Decrease in Systolic blood pressure” value was “Not significant”.
As to `O=c1cc(-c2ccccc2)oc2cc(OCC(O)CNCc3ccccc3)ccc12` (configuration not stated), the Systolic blood pressure in assay [1] was 223. In addition, the “Decrease in Systolic blood pressure” value in [9] was “Not significant”.
`CC(C)NCC(O)COc1ccc2c(=O)cc(-c3cccc(Cl)c3)oc2c1` (configuration not stated) came in with a Systolic blood pressure in assay [1] of 200. Moreover, the “Decrease in Systolic blood pressure” value in assay [9] is “Not significant”.
Molecule `O=c1cc(-c2ccccc2)oc2cc(OCC(O)CNCCO)ccc12` (configuration not stated) displayed a Systolic blood pressure in [1] of 189. For the same molecule, the “Decrease in Systolic blood pressure” value in assay [9] is “Not significant”.
Consider `O=c1cc(-c2ccccc2)oc2cc(OCC(O)CNC3CC3)ccc12` (configuration not stated), for which the results for the “Decrease in Systolic blood pressure” value in assay [11], in assay [5] and in assay [3] were 21%, 31% and 32%, respectively. The Systolic blood pressure amounted to 197 in [12], 198 in assay [6] and 196 in assay [1]. Besides, the Activity entry in [13] was “Weak activity”. In [2], this molecule had an inhibitory constant (Ki) of 1500 nM.
With `CCCNCC(O)COc1cccc2oc(-c3ccccc3)cc(=O)c12` (configuration not stated), the “Decrease in Systolic blood pressure” value in [14] was “Not significant”. Also, in assay [15], the Systolic blood pressure turned out to be 157.
Take `CC(C)NCC(O)COc1ccc2c(=O)cc(-c3ccccc3Cl)oc2c1` (configuration not stated): in assay [5], the “Decrease in Systolic blood pressure” value stood at 18%. The same molecule displayed a Systolic blood pressure in assay [6] of 192.
In turn, `O=c1cc(-c2ccccc2)oc2cc(OCC(O)CN3CCN(c4ccccc4)CC3)ccc12` (configuration not stated) registered a Systolic blood pressure in assay [1] of 217. Further, in [9], the “Decrease in Systolic blood pressure” value was “Not significant”.
With `NCC(O)COc1ccc2c(=O)cc(-c3ccccc3)oc2c1` (configuration not stated), the Systolic blood pressure in assay [1] is 187. Moreover, the “Decrease in Systolic blood pressure” value in assay [4] was “Not significant”.
Take `CCCNCC(COc1ccc2c(=O)cc(-c3ccccc3)oc2c1)OC(=O)c1ccccc1` (configuration not stated): the “Decrease in Systolic blood pressure” value in [3] is reported as 22.5%. In addition, in assay [1], the Systolic blood pressure is on record as 187.
With `CC(C)NCC(O)COc1ccc2oc(-c3ccccc3)cc(=O)c2c1` (configuration not stated), in assay [7], the Activity result was “Weak activity”. For the same molecule, the “Decrease in Systolic blood pressure” value in assay [3] turned out to be 12%. In addition, the Systolic blood pressure in assay [1] came out at 199. In addition, in assay [2], the inhibition constant (Ki) is 2200 nM.
Turning to `CCCCNCC(O)COc1ccc2c(=O)cc(-c3ccccc3)oc2c1` (configuration not stated), in assay [5], the “Decrease in Systolic blood pressure” value is given as 26%. Further, the Systolic blood pressure in [6] stood at 202.
Consider `COc1ccc(-c2cc(=O)c3ccc(OCC(O)CNC(C)C)cc3o2)cc1` (configuration not stated), for which, in assay [16], the “Decrease in Systolic blood pressure” value is listed as 10%. The molecule further gave a Systolic blood pressure in [1] of 198.
In the case of `CCCNCC(O)COc1ccc2c(=O)c(-c3ccccc3)c(-c3ccccc3)oc2c1` (configuration not stated), the Decrease stood at 12% in [17], 100% in assay [18] and 10% in assay [19].
